Where a name gives a salt, the structure may show the parent alone.
Assays:
[1] = absorbability (bioavailability) of oral formulations in a dog; conditions: in vivo, during fasting
Text: (§1) On the other hand, the present inventors have heretofore conducted various studies on oral formulations of 4-bromo-6-[3-(4-chlorophenyl)propoxy]-5-(3-pyridylmethylamino)-3(2H)-pyridazinone (hereinafter referred to simply as Compound A) or its salt.

[2] = solubility in water as a function of pH; type: physicochemical
Text: as §1

[3] = elution test (paddle method, Japanese Pharmacopoeia Disintegration Test Solutions 1 and 2); type: physicochemical
Protocol: The test conditions are as follows. Test solutions: Japanese Pharmacopoeia Disintegration Test Solution 1 (pH 1.2) 900 mL, Japanese Pharmacopoeia Disintegration Test Solution 2 900 mL (pH 6.8)+0.1% Tween 80 Paddle rotational speed: 50 rpm Liquid temperature: 37° C.

bioavailability [1]	solubility in water ([2]; in the vicinity of the pH in the intestine)	difference in the elution rate between Solution 1 (pH 1.2) and Solution 2 (pH 6.8) containing 0.1% Tween 80 ([3]; 900 mL, 37° C., paddle 50 rpm)	elution rate ([3]; Japanese Pharmacopoeia Disintegration Test Solution 2 (pH 6.8) + 0.1% Tween 80, after 6 hours, 37° C., paddle 50 rpm)	solubility indicated by the elution test ([3]; in the vicinity of the pH in the intestine (Solution 2 + 0.1% Tween 80))	Compound	solubility in water, dependence on pH ([2]; boundary in the vicinity of pH4.0)
~10%	hardly soluble in water	–	–	–	O=c1[nH]nc(OCCCc2ccc(Cl)cc2)c(NCc2cccnc2)c1Br [Compound A, 4-bromo-6-[3-(4-chlorophenyl)propoxy]-5-(3-pyridylmethylamino)-3(2H)-pyridazinone]	decreases in the vicinity of pH4.0 as a boundary
–	–	substantial difference	< 20%	hardly soluble	O=c1[nH]nc(OCCCc2ccc(Cl)cc2)c(NCc2cccnc2)c1Br [hydrochloride of Compound A, 4-bromo-6-[3-(4-chlorophenyl)propoxy]-5-(3-pyridylmethylamino)-3(2H)-pyridazinone]	–

Reference: patent US20090117190A1, “SUSTAINED-RELEASE PREPARATION” (Nissan Chemical Industries, Ltd., priority 2005, published 2009)
